Our source for the IC50 values is patent publication US10266549B2, “ULK1 inhibitors and methods using same” (SALK INSTITUTE FOR BIOLOGICAL STUDIES, priority 2014, dated 2019).

Structures are written as SMILES.

By IC50 is commonly meant the point on the concentration scale where inhibition reaches its midpoint.

The target in this experiment is ULK1 (Homo sapiens (Human), UniProt O75385). Briefly: ULK1 inhibition assay (Table 1). Type of experiment: biochemical. The note with it: * = tested as a mixture of regioisomers.
Chain of ULK1 (O75385 whole entry, species assumed): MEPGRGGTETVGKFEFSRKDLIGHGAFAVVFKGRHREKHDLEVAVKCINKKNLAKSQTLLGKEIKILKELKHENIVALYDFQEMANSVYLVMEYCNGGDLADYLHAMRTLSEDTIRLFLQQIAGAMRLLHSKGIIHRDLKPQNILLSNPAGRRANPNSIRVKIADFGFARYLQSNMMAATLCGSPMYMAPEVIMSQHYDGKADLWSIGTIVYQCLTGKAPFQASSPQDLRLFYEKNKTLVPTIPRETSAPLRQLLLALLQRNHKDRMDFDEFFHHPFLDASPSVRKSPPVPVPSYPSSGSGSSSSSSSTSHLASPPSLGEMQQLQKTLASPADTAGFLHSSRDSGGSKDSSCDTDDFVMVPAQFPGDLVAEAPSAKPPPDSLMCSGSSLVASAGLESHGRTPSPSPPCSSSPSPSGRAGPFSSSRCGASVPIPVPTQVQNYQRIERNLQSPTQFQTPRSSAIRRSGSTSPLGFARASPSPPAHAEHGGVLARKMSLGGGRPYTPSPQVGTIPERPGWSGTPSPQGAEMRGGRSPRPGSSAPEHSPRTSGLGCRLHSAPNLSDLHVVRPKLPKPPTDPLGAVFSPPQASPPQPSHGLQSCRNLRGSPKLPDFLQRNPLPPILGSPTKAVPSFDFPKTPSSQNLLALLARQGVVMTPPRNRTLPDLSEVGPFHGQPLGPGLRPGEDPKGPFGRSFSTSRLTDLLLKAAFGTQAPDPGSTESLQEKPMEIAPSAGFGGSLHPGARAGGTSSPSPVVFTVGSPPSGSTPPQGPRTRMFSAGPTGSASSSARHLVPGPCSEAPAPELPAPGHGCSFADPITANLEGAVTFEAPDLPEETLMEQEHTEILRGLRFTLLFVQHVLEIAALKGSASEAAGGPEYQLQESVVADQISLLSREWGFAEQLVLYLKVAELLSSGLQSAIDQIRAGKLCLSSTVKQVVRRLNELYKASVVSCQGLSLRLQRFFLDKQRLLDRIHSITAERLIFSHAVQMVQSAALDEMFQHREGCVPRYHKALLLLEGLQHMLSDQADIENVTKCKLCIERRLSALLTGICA
In the case of `CNC(=O)c1ccccc1Oc1nc(Nc2cccc(F)c2F)ncc1C(F)(F)F` [compound 113, 2-((2-((2,3-difluorophenyl)amino)-5-(trifluoromethyl)pyrimidin-4-yl)oxy)-N-methylbenzamide], the IC50 was over 2000 nM.

In the case of `O=C1CCc2cc(Nc3ncc(C(F)(F)F)c(Nc4ccccc4N4CCOCC4)n3)ccc2N1` [118a, 6-((4-((2-morpholinophenyl)amino)-5-(trifluoromethyl)pyrimidin-2-yl)amino)-3,4-dihydroquinolin-2(1H)-one], the IC50 was under 200 nM.

Regarding `CNC(=O)c1ccccc1Nc1nc(Nc2ccc(N3CCOCC3)cc2OC)ncc1Br` [compound 13, 2-(5-Bromo-2-(2-methoxy-4-morpholinophenylamino)pyrimidin-4-ylamino)-N-methylbenzamide], the IC50 is 200 to 2000 nM.

As to `CNC(=O)c1ccccc1Oc1nc(Nc2ccccc2OC)ncc1C(F)(F)F` [compound 103, 2-((2-((2-methoxyphenyl)amino)-5-(trifluoromethyl)pyrimidin-4-yl)oxy)-N-methylbenzamide], the half-inhibitory concentration (IC50) is over 2000 nM.

Regarding `COc1cc(Nc2ncc(Br)c(Nc3ccccn3)n2)cc(OC)c1OC` [compound 22, Bromo-N^4-(pyridin-2-yl)-N^2-(3,4,5-trimethoxyphenyl) pyrimidine-2,4-diamine], the IC50 is under 200 nM.

On to `O=C1CCc2cc(Nc3ncc(C(F)(F)F)c(Nc4ccc5c(c4)CCC(=O)N5)n3)ccc2N1` [120c, 6,6′-((5-(trifluoromethyl)pyrimidine-2,4-diyl)bis(azanediyl))bis(3,4-dihydroquinolin-2(1H)-one)], for which the 50% inhibitory concentration (IC50) is under 200 nM.

Regarding `FC(F)(F)c1cnc(NC2Cc3ccccc3C2)nc1Nc1ccc2c(c1)OCO2` [163a, N^4-(benzo[d][1,3]dioxol-5-yl)-N^2-(2,3-dihydro-1H-inden-2-yl)-5-(trifluoromethyl)pyrimidine-2,4-diamine], the half-maximal inhibitory concentration (IC50) is over 2000 nM.

As to `CNC(=O)c1ccccc1Nc1nc(Nc2ccc3[nH]ccc3c2)ncc1Cl` [compound 18, 2-(2-(1H-indol-5-ylamino)-5-chloropyrimidin-4-ylamino)-N-methylbenzamide], the half-maximal inhibitory concentration (IC50) was 200 to 2000 nM.

Regarding `O=C1CCc2cc(Nc3ncc(Br)c(Nc4ccccn4)n3)ccc2N1` [compound 155, 6-((5-bromo-4-(pyridin-2-ylamino)pyrimidin-2-yl)amino)-3,4-dihydroquinolin-2(1H)-one], the IC50 was under 200 nM.

Regarding `FC(F)(F)c1cnc(NC2CCC2)nc1Nc1cnc2[nH]ccc2c1` [161b, N^2-cyclobutyl-N^4-(1H-pyrrolo[2,3-b]pyridin-5-yl)-5-(trifluoromethyl)pyrimidine-2,4-diamine], the IC50 was under 200 nM.

As to `COc1ccc(Nc2nc(Nc3ccc(N4CCOCC4)cc3OC)ncc2C(F)(F)F)cn1` [compound 40, N^2-(2-methoxy-4-morpholinophenyl)-N^4-(6-methoxypyridin-3-yl)-5-(trifluoromethyl)pyrimidine-2,4-diamine], the half-maximal inhibitory concentration (IC50) was over 2000 nM.

As for `FC(F)(F)c1cnc(Nc2ccc3c(c2)OCO3)nc1Nc1ccc2c(c1)OCO2` [124c, N^2,N^4-bis(benzo[d][1,3]dioxol-5-yl)-5-(trifluoromethyl)pyrimidine-2,4-diamine], the half-maximal inhibitory concentration (IC50) was under 200 nM.

As to `FC(F)(F)c1cnc(Nc2ccc3c(c2)OCO3)nc1NC1CCC1` [168b, N^2-(benzo[d][1,3]dioxol-5-yl)-N^4-cyclobutyl-5-(trifluoromethyl)pyrimidine-2,4-diamine], the IC50 lay within 200 to 2000 nM.

On to `COc1ccc(Nc2ncc(C(F)(F)F)c(O)n2)cc1` [105b, 2-((4-methoxyphenyl)amino)-5-(trifluoromethyl)pyrimidin-4-ol], for which the 50% inhibitory concentration (IC50) is over 2000 nM.

Take `Nc1ncc(C(F)(F)F)c(Nc2cnc3[nH]ccc3c2)n1` [181b, N4-(1H-pyrrolo[2,3-b]pyridin-5-yl)-5-(trifluoromethyl)pyrimidine-2,4-diamine]: the half-inhibitory concentration (IC50) is 200 to 2000 nM.

For `FC(F)(F)c1cnc(Nc2ccc3c(c2)OCCO3)nc1NC1CC1` [158a, N^4-cyclopropyl-N^2-(2,3-dihydrobenzo[b][1,4]dioxin-6-yl)-5-(trifluoromethyl)pyrimidine-2,4-diamine], the 50% inhibitory concentration (IC50) is under 200 nM.

With `O=C1CCc2cc(Nc3nc(NC4CCCC4)ncc3C(F)(F)F)ccc2N1` [160b, 6-((2-(cyclopentylamino)-5-(trifluoromethyl)pyrimidin-4-yl)amino)-3,4-dihydroquinolin-2(1H)-one], the IC50 lay in the range of 200 to 2000 nM.

In the case of `O=C1CCc2cc(Nc3nc(Nc4ccc5c(c4)OC(F)(F)O5)ncc3C(F)(F)F)ccc2N1` [178b, 6-((2-((2,2-difluorobenzo[d][1,3]dioxol-5-yl)amino)-5-(trifluoromethyl)pyrimidin-4-yl)amino)-3,4-dihydroquinolin-2(1H)-one], the IC50 was under 200 nM.

Turning to `COc1ccc(C)c(Nc2ncc(Cl)c(Nc3cccc(CC#N)c3)n2)c1` [compound 54, 2-(3-(5-Chloro-2-(5-methoxy-2-methylphenylamino)pyrimidin-4-ylamino)phenyl)acetonitrile], the concentration for half-maximal inhibition (IC50) is over 2000 nM.

As for `FC(F)(F)c1cnc(NC2CCC2)nc1Nc1ccc2c(c1)OCO2` [168a, N^4-(benzo[d][1,3]dioxol-5-yl)-N^2-cyclobutyl-5-(trifluoromethyl)pyrimidine-2,4-diamine], the IC50 was under 200 nM.

`Nc1nc(Nc2ccc3c(c2)OCO3)ncc1C(F)(F)F` [165b, N^2-(benzo[d][1,3]dioxol-5-yl)-5-(trifluoromethyl)pyrimidine-2,4-diamine]: the IC50 lay within 200 to 2000 nM.

As for `COc1c(C)cnc(CNc2nc(Nc3ccc4c(c3)CCC(=O)N4)ncc2C(F)(F)F)c1C` [compound 82, 6-((4-(((4-Methoxy-3,5-dimethylpyridin-2-yl)methyl)amino)-5-(trifluoromethyl)pyrimidin-2-yl)amino)-3,4-dihydroquinolin-2(1H)-one], the 50% inhibitory concentration (IC50) was under 200 nM.

`CNC(=O)c1ccccc1Oc1nc(Nc2ccc3c(c2)CCC(=O)N3)ncc1C(F)(F)F` [compound 110, N-methyl-2-((2-((2-oxo-1,2,3,4-tetrahydroquinolin-6-yl)amino)-5-(trifluoromethyl)pyrimidin-4-yl)oxy)benzamide]: the IC50 is 200 to 2000 nM.

`O=C1CCc2cc(Nc3ncc(C(F)(F)F)c(Nc4ccc5c(c4)OC(F)(F)O5)n3)ccc2N1` [178a, 6-((4-((2,2-difluorobenzo[d][1,3]dioxol-5-yl)amino)-5-(trifluoromethyl)pyrimidin-2-yl)amino)-3,4-dihydroquinolin-2(1H)-one]: the IC50 is under 200 nM.

As to `COc1ccc(Nc2nc(Nc3cc(OC)c(OC)c(OC)c3)ncc2Br)cn1` [compound 25, 5-Bromohloro-N^4-(6-methoxypyridin-3-yl)-N^2-(3,4,5-trimethoxyphenyl)pyrimidine-2,4-diamine], the half-maximal inhibitory concentration (IC50) was under 200 nM.

As for `COc1cccc(Nc2nc(Nc3ccc4c(c3)OCCO4)ncc2C(F)(F)F)c1` [compound 133, N^2-(2,3-dihydrobenzo[b][1,4]dioxin-6-yl)-N^4-(3-methoxyphenyl)-5-(trifluoromethyl)pyrimidine-2,4-diamine], the IC50 was under 200 nM.

For the compound `CNC(=O)c1cccc(Nc2nc(Nc3ccc4c(c3)CCC(=O)N4)ncc2C(F)(F)F)c1` [compound 128, N-methyl-3-((2-((2-oxo-1,2,3,4-tetrahydroquinolin-6-yl)amino)-5-(trifluoromethyl)pyrimidin-4-yl)amino)benzamide], the concentration for half-maximal inhibition (IC50) is under 200 nM.
